Bridge positions count the residues as written; N and C are the ends. Square brackets hold non-standard residues; d marks the D form. S8 = C=CCCCCCC[C@](C)(N)C(=O)O; R5 = C=CCCC[C@@](C)(N)C(=O)O; S5 = C=CCCC[C@](C)(N)C(=O)O; Aib = CC(C)(N)C(=O)O
Experiments:
[1] = Circular dichroism, temperature-dependent spectra and thermal unfolding curves; type: physicochemical
Procedure: Peptides were dissolved in water to described concentrations, and the concentrations were determined by absorbance spectroscopy (extinction coefficient for tryptophan, ε280=5690 cm^-1). Circular dichroism spectra were collected on a Jasco J-710 spectropolarimeter equipped with a temperature controller using the following standard measurement parameters: 0.5 nm step resolution, 20 nm/sec speed, 10 accumulations, 1 sec response, 1 nm bandwidth, 0.1 cm path length. All spectra were converted to a uniform scale of molar ellipticity after background subtraction. Temperature-dependent CD spectra of each peptide (94-100 μM) were recorded at varying temperatures (4° C. and every 10° C. from 10° C. to 90° C.) from 260 to 185 nm. CD measurements with varying concentrations (18, 48, 70, and 118 μM) of peptide 4 were performed at 20° C. To generate thermal unfolding curves, the ellipticity at 222 nm for each peptide (94-100 μM) was measured every 1° C. from 4 to 95° C. with temperature slope of 3° C./min. To obtain Tm, we analyzed the thermal unfolding curves using a two-state model as previously described with 95% confidence interval (see […]. Biophysic. J. 2003, 85, 1457-1465). […] However, peptide 4 retained more than 50% of their alpha-helicity even at 95° C.

trypsin = target: T1, trypsin (Bos taurus, UniProt P00760); type: in vitro ADME; settings: for slope of ln[S] versus time (first order kinetics of trypsin digestion): 0.1 M NH4HCO3 buffer pH 8.0, room temperature
T1 construct: purchased Pierce 20230
T1 sequence (P00760 24-246): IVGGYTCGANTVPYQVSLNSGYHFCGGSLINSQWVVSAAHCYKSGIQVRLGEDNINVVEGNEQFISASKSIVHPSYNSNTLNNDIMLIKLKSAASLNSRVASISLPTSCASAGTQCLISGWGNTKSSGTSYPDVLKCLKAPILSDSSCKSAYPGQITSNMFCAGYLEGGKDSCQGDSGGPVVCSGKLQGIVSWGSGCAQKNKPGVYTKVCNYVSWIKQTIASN
Procedure: 0.4 mL of trypsin immobilized on agarose (Pierce, catalog #20230) was washed with 0.8 mL of a digestion buffer (0.1 M NH4HCO3 buffer, pH 8.0). The gel was separated from the buffer after each wash by centrifugation. The washed enzyme was suspended in 1.6 mL of the digestion buffer. 350 μL of a peptide solution (24 μM) in the digestion buffer was mixed with 150 μL of the enzyme suspension and the resulting mixture was incubated with rapid shaking at room temperature for 10, 30, 90, 135, 180 minutes. The incubation was quenched by filtering off the enzyme, and the residual substrate in the filtrate was quantified by HPLC-based peak detection at 280 nm.

chymotrypsin = assay: Stability of peptides against chymotrypsin; type: in vitro ADME; settings: compared with stapled peptide 5
[2] = Stability of peptides against guanidine hydrochloride (helicity); type: physicochemical

Molecule | helical character by CD (in words) [1] | cooperative melting transition point (in words) ([1]; 4 to 95° C.) | alpha-helicity retained ([1]; at 95° C.) | thermal stability of the helix by CD (in words) ([1]; increasing temperature) | slope of ln[S] versus time (first order kinetics of trypsin digestion) (trypsin) | half-life (trypsin; pH 8) | stability against chymotrypsin (in words) (chymotrypsin) | stability against the denaturing agent guanidine hydrochloride (in words) [2] | cooperative melting transition (Tm) ([1]; CD ellipticity at 222 nm, 4 to 95° C., peptide 94-100 μM in water, two-state model)
CC(=O)N[C@@H](CCC(=O)O)C(=O)N[C@@H](Cc1c[nH]c2ccccc12)C(=O)N[C@@H](C)C(=O)N[C@@]1(C)CCC/C=C\CCC[C@]2(CCC/C=C/CCCCCC[C@@](C)(C(N)=O)NC(=O)[C@H](Cc3c[nH]cn3)NC(=O)[C@H](C)NC(=O)[C@H](C)NC(=O)[C@H](CC(C)C)NC(=O)[C@H](Cc3ccccc3)NC(=O)[C@H](CCCCN)NC2=O)NC(=O)[C@H](C)NC(=O)[C@H](C)NC(=O)[C@H]([C@@H](C)O)NC1=O [Peptide 4] | displayed the characteristic CD signature of alpha-helices | did not have a cooperative melting transition point | more than 50% | less affected by increasing temperature than single-stapled peptides 5 and 6 | 4.04±0.16×10^−5 min^−1 | 172 min | higher level of stability | remains fully helical even at extremely high concentrations of guanidine salt | –
Peptide 5: single-stapled peptide, RCM product of Table 5 entry IX (SEQ ID 9) (Ac-EWA[Aib]TAA[R5]KFLAAH[S8]-NH2; staple 8-15 (inferred)) | – | – | – | – | 7.11±0.66×10^−5 min^−1 | – | – | – | 57 °C
Peptide 8: i+4+4 stitched peptide, double RCM product of Table 5 entry XI (SEQ ID 11) (Ac-EWA[S5]TAA[2‑amino‑2‑(pent-4-enyl)hept‑6‑enoic acid]KFL[R5]AHA-NH2; staple 8-12, 4-8) | helical character greater than the stapled peptide 5 and less than that of the i+4+7 stitched peptide 4 | did not have a cooperative melting transition point | – | – | – | – | – | – | –

Reference: patent US10301351B2, “Stitched polypeptides” (President and Fellows of Harvard College, priority 2007, dated 2019)
